Experimental data published in ChEMBL document CHEMBL5233249, “Recent advancements in the development of heterocyclic anti-inflammatory agents” (Eur J Med Chem, 2020).

Key:
Mus musculus [1] = test: Anti-inflammatory activity against Carrageenan-induced paw edema in mouse model assessed as reduction in volume of edema at 100 mg/kg measured after 24 hrs relative to control; type: functional; parameters: scale not given: the % may be the effect or the level left
RAW264.7 = test: Anti-inflammatory activity in mouse RAW264.7 cells assessed as LPS-induced reduction in decreased […] level of IL-1beta measured after 24 hrs; type: functional
[2] = target: T1, Prostaglandin G/H synthase 1 (Ovis aries, UniProt P05979); test: Inhibition of ovine COX-1 by EIA method
T1 sequence (P05979 whole entry): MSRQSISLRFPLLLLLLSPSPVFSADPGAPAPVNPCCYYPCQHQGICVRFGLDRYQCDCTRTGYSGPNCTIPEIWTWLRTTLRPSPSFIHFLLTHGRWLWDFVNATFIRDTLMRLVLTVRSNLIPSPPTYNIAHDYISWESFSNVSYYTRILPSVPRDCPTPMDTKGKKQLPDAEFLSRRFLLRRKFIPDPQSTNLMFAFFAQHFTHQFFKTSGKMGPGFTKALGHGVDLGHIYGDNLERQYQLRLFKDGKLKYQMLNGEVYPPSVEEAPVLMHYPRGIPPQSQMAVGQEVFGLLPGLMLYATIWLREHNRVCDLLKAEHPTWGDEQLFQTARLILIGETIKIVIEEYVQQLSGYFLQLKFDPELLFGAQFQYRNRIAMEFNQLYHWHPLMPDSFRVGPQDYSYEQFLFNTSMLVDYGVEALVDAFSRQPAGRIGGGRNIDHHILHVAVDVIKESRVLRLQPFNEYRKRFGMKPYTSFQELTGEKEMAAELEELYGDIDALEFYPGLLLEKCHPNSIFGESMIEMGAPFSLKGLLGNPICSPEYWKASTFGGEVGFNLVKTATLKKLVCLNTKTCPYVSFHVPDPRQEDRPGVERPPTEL

Rattus norvegicus [3] = test: Anti-inflammatory activity in Carrageenan-induced paw edema in Wistar albino rat assessed as inhibition of paw edema measured after 3 hr relative to control; type: functional; parameters: Activity: scale not given: the % may be the effect or the level left
Mus musculus [4] = test: Anti-inflammatory activity against Carrageenan-induced paw edema in mouse model assessed as inhibition of edema at 100 mg/kg measured after 3 hrs relative to control; type: functional; parameters: scale not given: the % may be the effect or the level left
[5] = target: T2, Bifunctional epoxide hydrolase 2 (Homo sapiens, UniProt P34913); test: Inhibition of human recombinant sEH
T2 sequence (P34913 whole entry): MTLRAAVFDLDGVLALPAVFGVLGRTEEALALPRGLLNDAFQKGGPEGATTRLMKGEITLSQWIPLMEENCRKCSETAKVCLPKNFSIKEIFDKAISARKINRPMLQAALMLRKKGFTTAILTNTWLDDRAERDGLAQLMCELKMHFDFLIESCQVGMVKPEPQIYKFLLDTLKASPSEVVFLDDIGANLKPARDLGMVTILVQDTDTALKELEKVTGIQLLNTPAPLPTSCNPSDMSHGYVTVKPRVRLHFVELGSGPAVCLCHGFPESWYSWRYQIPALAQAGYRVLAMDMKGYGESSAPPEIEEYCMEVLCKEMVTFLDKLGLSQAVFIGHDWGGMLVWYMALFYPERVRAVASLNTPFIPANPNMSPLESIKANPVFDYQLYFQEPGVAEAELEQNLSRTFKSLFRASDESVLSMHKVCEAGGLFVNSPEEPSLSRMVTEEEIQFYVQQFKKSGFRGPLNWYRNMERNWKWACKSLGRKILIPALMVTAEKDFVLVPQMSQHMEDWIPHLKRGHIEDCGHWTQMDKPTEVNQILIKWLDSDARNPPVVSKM

Rattus norvegicus [6] = test: Anti-inflammatory activity in Carageenan-induced paw edema Wistar rat model assessed as reduction in paw edema volume relative to control; type: functional; parameters: scale not given: the % may be the effect or the level left
[7] = target: T3, Polyunsaturated fatty acid 5-lipoxygenase (Homo sapiens, UniProt P09917); test: Inhibition of 5-LOX (unknown origin) after 5 mins by colorimetric method
T3 sequence (P09917 whole entry): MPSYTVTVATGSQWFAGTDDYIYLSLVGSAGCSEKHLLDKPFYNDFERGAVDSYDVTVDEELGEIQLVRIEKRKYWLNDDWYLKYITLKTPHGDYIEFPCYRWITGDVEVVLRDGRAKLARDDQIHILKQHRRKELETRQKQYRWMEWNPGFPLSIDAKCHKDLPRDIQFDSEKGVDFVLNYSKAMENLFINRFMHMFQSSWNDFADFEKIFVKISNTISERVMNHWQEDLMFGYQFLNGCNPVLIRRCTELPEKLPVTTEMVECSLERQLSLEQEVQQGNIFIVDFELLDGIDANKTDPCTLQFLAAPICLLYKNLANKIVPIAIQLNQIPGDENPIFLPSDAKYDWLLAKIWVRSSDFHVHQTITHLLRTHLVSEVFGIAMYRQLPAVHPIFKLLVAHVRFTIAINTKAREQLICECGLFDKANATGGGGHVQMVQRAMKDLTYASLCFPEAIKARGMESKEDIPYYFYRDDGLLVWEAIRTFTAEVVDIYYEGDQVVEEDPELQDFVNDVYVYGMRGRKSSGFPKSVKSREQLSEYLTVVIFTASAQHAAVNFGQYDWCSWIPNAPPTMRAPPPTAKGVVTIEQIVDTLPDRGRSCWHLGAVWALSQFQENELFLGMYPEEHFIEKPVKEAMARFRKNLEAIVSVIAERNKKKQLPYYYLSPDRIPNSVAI

[8] = target: T4, Polyunsaturated fatty acid lipoxygenase ALOX15 (Homo sapiens, UniProt P16050); test: Inhibition of 15-LOX (unknown origin)
T4 sequence (P16050 whole entry): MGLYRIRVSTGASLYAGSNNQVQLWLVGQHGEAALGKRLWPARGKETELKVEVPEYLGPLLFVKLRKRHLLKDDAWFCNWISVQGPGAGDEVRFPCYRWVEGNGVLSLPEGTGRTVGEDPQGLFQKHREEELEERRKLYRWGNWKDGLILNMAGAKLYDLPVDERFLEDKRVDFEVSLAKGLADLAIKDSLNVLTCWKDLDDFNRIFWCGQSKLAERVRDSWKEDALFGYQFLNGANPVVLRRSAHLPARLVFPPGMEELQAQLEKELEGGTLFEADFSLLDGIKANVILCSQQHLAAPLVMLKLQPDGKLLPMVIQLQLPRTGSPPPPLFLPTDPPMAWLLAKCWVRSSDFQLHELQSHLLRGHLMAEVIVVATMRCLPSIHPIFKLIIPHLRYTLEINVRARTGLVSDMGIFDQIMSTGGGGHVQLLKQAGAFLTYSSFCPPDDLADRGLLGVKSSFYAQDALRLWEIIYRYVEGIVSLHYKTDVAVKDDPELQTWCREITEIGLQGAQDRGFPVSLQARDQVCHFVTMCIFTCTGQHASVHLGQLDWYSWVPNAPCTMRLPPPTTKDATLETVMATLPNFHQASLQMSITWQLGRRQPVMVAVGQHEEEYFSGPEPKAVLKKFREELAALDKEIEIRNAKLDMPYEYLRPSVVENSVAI

c1ccc(N2CCN(c3cncc(-c4nc5ccccc5[nH]4)n3)CC2)cc1
Activity (Mus musculus [1]): 54.31%

COc1c2occc2c(OC)c2c(C)c(/C(=N/c3cc(N4CCNCC4)nc(N4CCNCC4)n3)N3CCNCC3)oc12
Activity (RAW264.7): 30 pg/mL | IC50 [2]: 4150 nM | Activity (Rattus norvegicus [3]): 68%

O=C(O)c1ccc(CSc2nc3cc(F)c(-c4ncn[nH]4)cc3[nH]2)cc1
Activity (Mus musculus [4]): 66.3% | IC50 [5]: 700 nM

O=C1c2ccccc2C(=O)N1c1nc2cc([N+](=O)[O-])ccc2n1Cc1ccc(-c2ccccc2)cc1
Activity (Rattus norvegicus [6]): 81.88% | IC50 [7]: 320 nM | IC50 [2]: 9850 nM | IC50 [8]: 1020 nM
